Test results from patent publication US20160046618A1, “Cyclopropyl Fused Thiazin-2-Amine Compounds as Beta-Secretase Inhibitors and Methods of Use” (AMGEN INC., priority 2014, published 2016).
Like-named read-outs stand apart in the source and are kept apart here.

Assays:
Recombinant Cat D = Recombinant Cat D (Homo sapiens (Human), UniProt P07339); experiment: In vitro enzymatic Cathepsin D (Cat D) FRET assay; format: biochemical; conditions: read-out: IC50 IP (μM) CatD
Outline: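 Assay pH is 3.5 (0.05 M citrate, 5 mM CHAPS, 10% DMSO final) with Cat D from CHO cells. A 20 nM quenched peptide substrate is cleaved over one hour; the reaction is ended with Tris and read by fluorescence (ex 500, em 580 nm).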

[1] = tested on: Aβ40 in conditioned medium of cells stably expressing Amyloid Precursor Protein (APP); experiment: In vitro BACE-1 cell-based assay (Aβ40 sandwich ELISA); conditions: read-out: IC50 IP (μM) BACE1 cell
Outline: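 APP-stable cells, pre-cultured 24 h at 37° C in DMEM/10% FBS, were treated 24 h with compound in a 10-point series starting at 100 μM or 10 μM (0.1% DMSO final). Secreted Aβ40 in conditioned medium was measured by pAb40/biotin-6E10 sandwich ELISA with Europium time-resolved fluorescence; IC50 from percent inhibition versus concentration.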

human recombinant BACE1 = human recombinant BACE1 (Homo sapiens (Human), UniProt P56817); experiment: In vitro enzymatic BACE1 FRET assay; format: biochemical; conditions: read-out: IC50 IP (μM) BACE1 enzyme
Chain of human recombinant BACE1 (P56817 46-501): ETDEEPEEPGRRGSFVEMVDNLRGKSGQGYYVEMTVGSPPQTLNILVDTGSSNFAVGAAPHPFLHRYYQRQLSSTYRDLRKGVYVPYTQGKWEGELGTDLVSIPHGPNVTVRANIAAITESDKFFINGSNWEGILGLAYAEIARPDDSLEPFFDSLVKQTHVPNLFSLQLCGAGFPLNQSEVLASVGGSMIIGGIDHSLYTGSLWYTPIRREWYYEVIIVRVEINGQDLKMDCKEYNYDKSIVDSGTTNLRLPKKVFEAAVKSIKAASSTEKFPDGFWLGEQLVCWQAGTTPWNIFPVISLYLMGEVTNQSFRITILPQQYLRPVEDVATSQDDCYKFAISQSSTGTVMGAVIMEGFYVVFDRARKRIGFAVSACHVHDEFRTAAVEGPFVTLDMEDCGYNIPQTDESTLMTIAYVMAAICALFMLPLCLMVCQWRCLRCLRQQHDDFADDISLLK
Outline: (§1)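 Ni-NTA-purified recombinant enzyme incubated 1 h with 50 nM FRET peptide substrate (fluorophore and quencher flanking the BACE cleavage site). Reaction stopped with Tris buffer raising pH to neutrality; cleavage-released fluorescence read at ex 488/em 590 nm.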

human recombinant BACE2 = human recombinant BACE2 (Homo sapiens (Human), UniProt Q9Y5Z0); experiment: In vitro enzymatic BACE2 FRET assay; format: biochemical; conditions: read-out: IC50 IP (μM) BACE2 enzyme
Chain of human recombinant BACE2 (Q9Y5Z0 63-518): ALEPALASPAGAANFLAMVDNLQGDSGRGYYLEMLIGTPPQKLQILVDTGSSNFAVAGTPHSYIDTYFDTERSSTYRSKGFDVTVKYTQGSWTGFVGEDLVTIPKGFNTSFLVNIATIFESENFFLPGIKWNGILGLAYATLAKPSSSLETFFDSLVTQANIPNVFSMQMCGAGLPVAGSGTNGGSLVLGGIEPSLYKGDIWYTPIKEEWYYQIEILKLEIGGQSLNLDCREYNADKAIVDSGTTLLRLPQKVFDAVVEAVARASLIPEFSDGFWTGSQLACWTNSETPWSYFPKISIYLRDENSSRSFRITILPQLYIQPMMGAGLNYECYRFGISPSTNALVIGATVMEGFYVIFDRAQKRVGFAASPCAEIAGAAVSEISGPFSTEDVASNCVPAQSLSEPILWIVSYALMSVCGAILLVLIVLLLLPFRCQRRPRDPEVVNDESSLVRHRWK
Outline: as §1

Chain of Recombinant Cat D (P07339 65-412): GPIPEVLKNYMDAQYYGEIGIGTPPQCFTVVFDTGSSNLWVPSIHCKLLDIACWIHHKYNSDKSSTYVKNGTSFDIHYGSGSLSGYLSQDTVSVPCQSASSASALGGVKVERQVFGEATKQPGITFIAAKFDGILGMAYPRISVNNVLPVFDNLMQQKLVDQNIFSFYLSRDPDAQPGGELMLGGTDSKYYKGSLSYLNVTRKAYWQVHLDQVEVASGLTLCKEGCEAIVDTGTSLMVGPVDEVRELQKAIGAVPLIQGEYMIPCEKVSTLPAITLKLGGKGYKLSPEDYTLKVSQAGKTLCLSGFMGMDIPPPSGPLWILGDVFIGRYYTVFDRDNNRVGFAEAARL

Row | IC50 (Recombinant Cat D) | IC50 [1] | IC50 (human recombinant BACE1) | IC50 (human recombinant BACE2) | IC50 (Recombinant Cat D; Cathepsin D FRET enzyme assay) | IC50 ([1]; BACE1 cell-based assay) | IC50 (human recombinant BACE1; BACE1 FRET enzyme assay) | IC50 (human recombinant BACE2; BACE2 FRET enzyme assay) | SMILES
1 | 212 µM | 0.00551 µM | 565 pM | 0.0562 µM |  |  |  |  | C#CCOc1cnc(C(=O)Nc2cc(F)c(F)c([C@@]3(C)N=C(N)S[C@@]4(C(=O)OC)C[C@H]43)c2)cn1 [Example 975, methyl (1S,5S,6S)-3-amino-5-(2,3-difluoro-5-(((5-(2-propyn-1-yloxy)-2-pyrazinyl)carbonyl)amino)phenyl)-5-methyl-2-thia-4-azabicyclo[4.1.0]hept-3-ene-1-carboxylate]
2 | 211 µM | 0.00113 µM | 1160 pM | 0.00651 µM |  |  |  |  | CC(C)(CF)NC(=O)[C@]12C[C@H]1[C@@](C)(c1cc(NC(=O)c3ccc(C#N)cn3)ccc1F)N=C(N)S2 [Example 1018, (1S,5S,6S)-3-amino-5-(5-(5-cyanopicolinamido)-2-fluorophenyl)-N-(1-fluoro-2-methylpropan-2-yl)-5-methyl-2-thia-4-azabicyclo[4.1.0]hept-3-ene-1-carboxamide]
3 | 80.9 µM | 0.0102 µM | 3040 pM | 0.144 µM |  |  |  |  | COC[C@]12C[C@H]1[C@@](C)(c1cc(Nc3ncnc4cc(OCc5nc(C)oc5C)cnc34)cc(F)c1F)N=C(N)S2 [Example 948, N-(3-((1S,5S,6S)-3-amino-1-(methoxymethyl)-5-methyl-2-thia-4-azabicyclo[4.1.0]hept-3-en-5-yl)-4,5-difluorophenyl)-7-((2,5-dimethyl-1,3-oxazol-4-yl)methoxy)pyrido[3,2-d]pyrimidin-4-amine]
4 | > 400 µM | 0.0147 µM | 671 pM | 0.0211 µM |  |  |  |  | CC#CCOc1cnc2c(Nc3cc(F)c(F)c([C@@]4(C)N=C(N)S[C@@]5(C(F)F)C[C@@H]45)c3)nccc2n1 [Example 868, N-(3-((1S,5S,6S)-3-amino-1-(difluoromethyl)-5-methyl-2-thia-4-azabicyclo[4.1.0]hept-3-en-5-yl)-4,5-difluorophenyl)-2-(2-butyn-1-yloxy)pyrido[3,4-b]pyrazin-5-amine]
5 | 138 µM | 0.00455 µM | 454 pM | 0.0794 µM |  |  |  |  | C[C@]1(c2cc(NC(=O)c3cnc(OCC(F)(F)F)cn3)ccc2F)N=C(N)S[C@@]2(C(=O)NCC(F)(F)F)C[C@H]21 [Example 972, (1S,5S,6S)-3-amino-5-(2-fluoro-5-(5-(2,2,2-trifluoroethoxy)pyrazine-2-carboxamido)phenyl)-5-methyl-N-(2,2,2-trifluoroethyl)-2-thia-4-azabicyclo[4.1.0]hept-3-ene-1-carboxamide]
6 | 6.84 µM | 0.0144 µM | 25700 pM | 0.183 µM |  |  |  |  | CC(C)(O)[C@]12C[C@H]1[C@@](C)(c1cc(Nc3ncnc4cc(C#N)cnc34)cc(F)c1F)N=C(N)S2 [Example 909, 4-((3-((1S,5S,6S)-3-amino-1-(1-hydroxy-1-methylethyl)-5-methyl-2-thia-4-azabicyclo[4.1.0]hept-3-en-5-yl)-4,5-difluorophenyl)amino)pyrido[3,2-d]pyrimidine-7-carbonitrile]
7 |  |  |  |  | 2810 µM | 22.6 µM | 114000 pM | 0.271 µM | NC1=N[C@](CF)(c2cc(Nc3nccc4nc(C(F)(F)F)cnc34)ccc2F)C2C[C@@H]2S1 (stereo in doubt) [Example 87, N-(3-((1S,5S,6S)-3-amino-5-(fluoromethyl)-2-thia-4-azabicyclo[4.1.0]hept-3-en-5-yl)-4-fluorophenyl)-2-(trifluoromethyl)pyrido[3,4-b]pyrazin-5-amine]
8 | > 400 µM | 0.569 µM | 117000 pM | 2.52 µM |  |  |  |  | COC[C@]12C[C@H]1[C@@](C)(c1cc(NC(=O)c3ncc(O[C@@H](C)c4ncco4)cc3C)cc(F)c1F)N=C(N)S2 [Example 687, N-(3-((1S,5S,6S)-3-amino-1-(methoxymethyl)-5-methyl-2-thia-4-azabicyclo[4.1.0]hept-3-en-5-yl)-4,5-difluorophenyl)-3-methyl-5-((1S)-1-(1,3-oxazol-2-yl)ethoxy)-2-pyridinecarboxamide]
9 | > 400 µM | 0.00082 µM | 728 pM | < 0.00203 µM |  |  |  |  | C#CCOc1cnc2c(Nc3ccc(F)c([C@@]4(CF)N=C(N)S[C@@]5(C(=O)N(C)C)C[C@H]54)c3)nccc2n1 [Example 779, (1S,5S,6S)-3-amino-5-(fluoromethyl)-5-(2-fluoro-5-((2-(2-propyn-1-yloxy)pyrido[3,4-b]pyrazin-5-yl)amino)phenyl)-N,N-dimethyl-2-thia-4-azabicyclo[4.1.0]hept-3-ene-1-carboxamide]
10 | 1000 µM | 0.000921 µM | 70 pM | 0.00345 µM |  |  |  |  | CN(C)C(=O)[C@]12C[C@H]1[C@@](C)(c1cc(NC(=O)c3cnc(OCC(F)(F)F)cn3)ccc1F)N=C(N)S2 [Example 1000, (1S,5S,6S)-3-amino-5-(2-fluoro-5-(5-(2,2,2-trifluoroethoxy)pyrazine-2-carboxamido)phenyl)-N,N,5-trimethyl-2-thia-4-azabicyclo[4.1.0]hept-3-ene-1-carboxamide]
11 | 961 µM | 0.000535 µM | 715 pM | 0.00302 µM |  |  |  |  | C#CCOc1cnc2c(Nc3ccc(F)c([C@@]4(C)N=C(N)S[C@@]5(C(=O)N6CCCC6)C[C@H]54)c3)nccc2n1 [Example 632, N-(3-((1S,5S,6S)-3-amino-5-methyl-1-(1-pyrrolidinylcarbonyl)-2-thia-4-azabicyclo[4.1.0]hept-3-en-5-yl)-4-fluorophenyl)-2-(2-propyn-1-yloxy)pyrido[3,4-b]pyrazin-5-amine]
12 | 559 µM | 0.195 µM | 32400 pM | 0.0972 µM |  |  |  |  | COc1cnc2c(Nc3cc(F)c(F)c([C@@]4(C)N=C(N)S[C@H]5C[C@H]54)c3)nccc2n1 [Example 900, N-(3-((1S,5S,6S)-3-amino-5-methyl-2-thia-4-azabicyclo[4.1.0]hept-3-en-5-yl)-4,5-difluorophenyl)-2-methoxypyrido[3,4-b]pyrazin-5-amine]
13 | 254 µM | 0.000889 µM | 498 pM | < 0.00203 µM |  |  |  |  | C[C@]1(c2cc(NC(=O)c3ccc(Cl)cn3)cc(F)c2F)N=C(N)S[C@@]2(C(=O)N3CCCC3)C[C@H]21 [Example 935, N-(3-((1S,5S,6S)-3-amino-5-methyl-1-(1-pyrrolidinylcarbonyl)-2-thia-4-azabicyclo[4.1.0]hept-3-en-5-yl)-4,5-difluorophenyl)-5-chloro-2-pyridinecarboxamide]
14 | > 400 µM | 0.035 µM | 30000 pM | 1.19 µM |  |  |  |  | COC[C@]12C[C@H]1[C@@](C)(c1cc(NC(=O)c3cnc(OCC4(C)COC4)cn3)ccc1F)N=C(N)S2 [Example 1050, N-(3-((1S,5S,6S)-3-amino-1-(methoxymethyl)-5-methyl-2-thia-4-azabicyclo[4.1.0]hept-3-en-5-yl)-4-fluorophenyl)-5-((3-methyl-3-oxetanyl)methoxy)-2-pyrazinecarboxamide]
15 | 1330 µM | 0.000489 µM | 570 pM | 0.0167 µM |  |  |  |  | Cc1cc(NC(=O)c2cnc(OCc3ncco3)cn2)cc([C@@]2(C)N=C(N)S[C@@]3(C(F)F)C[C@@H]23)c1F [Example 1074, N-(3-((1S,5S,6S)-3-amino-1-(difluoromethyl)-5-methyl-2-thia-4-azabicyclo[4.1.0]hept-3-en-5-yl)-4-fluoro-5-methylphenyl)-5-(oxazol-2-ylmethoxy)pyrazine-2-carboxamide]
